Test results reported in PubChem BioAssay AID1963438 (Molecular Pharmacology Branch, DTP, NCI, 2024).
Where “and” joins values, the source holds several entries; their conditions need not be identical. Identical values can stand only once.

System: NCI-H510 multicellular tumor spheroid growth, % test/control
Test: Anticancer human tumor NCI-H510 cell line growth inhibition [Asc];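 further: spheroids exposed to agents for 7 days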;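 on viability, T/C: 100% = DMSO vehicle control wells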
Conditions: for viability, T/C: stronger effect = lower value
In short: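 Complex spheroids combining tumor cells with HUVEC endothelial cells and human MSCs, at 37 degrees C, 5% CO2; agents tested alone or combined, half-log dilutions from at or near clinical Cmax, or 10 microM if Cmax unknown.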

CCN1C(C(=O)NC23CCC(C(=O)O)(CC2)CC3)C(c2cccc(Cl)c2F)C2(C(=O)Nc3cc(Cl)ccc32)C12CCCCC2 (configuration not stated) + CNC(C)C(=O)NC1CN(S(=O)(=O)c2cccc(S(=O)(=O)N3CCC4CCC(C(=O)NC(c5ccccc5)c5ccccc5)N4C(=O)C(NC(=O)C(C)NC)C3)c2)CCC2CCC(C(=O)NC(c3ccccc3)c3ccccc3)N2C1=O
IC50 (curve of first compound, second compound 0.01 µM): > 3000 nM
IC50 (curve of first compound, second compound 0.0316 µM): > 3000 nM
IC50 (curve of first compound, second compound 0.1 µM): > 3000 nM
IC50 (curve of first compound, second compound 0.316 µM): > 3000 nM
IC50 (curve of first compound, second compound 1 µM): > 3000 nM
viability, T/C (second compound 0.01 µM, first compound 0.00949 µM): 130%
viability, T/C (second compound 0.01 µM, first compound 0.03 µM): 104%
viability, T/C (second compound 0.01 µM, first compound 0.0949 µM): 101%
viability, T/C (second compound 0.01 µM, first compound 0.3 µM): 96.7%
viability, T/C (second compound 0.01 µM, first compound 0.949 µM): 108%
viability, T/C (second compound 0.01 µM, first compound 3 µM): 104%
viability, T/C (second compound 0.0316 µM, first compound 0.00949 µM): 108%
viability, T/C (second compound 0.0316 µM, first compound 0.03 µM): 98.3%
viability, T/C (second compound 0.0316 µM, first compound 0.0949 µM): 97.8%
viability, T/C (second compound 0.0316 µM, first compound 0.3 µM): 117%
viability, T/C (second compound 0.0316 µM, first compound 0.949 µM): 131%
viability, T/C (second compound 0.0316 µM, first compound 3 µM): 90.9%
viability, T/C (second compound 0.1 µM, first compound 0.00949 µM): 108%
viability, T/C (second compound 0.1 µM, first compound 0.03 µM): 113%
viability, T/C (second compound 0.1 µM, first compound 0.0949 µM): 106%
viability, T/C (second compound 0.1 µM, first compound 0.3 µM): 101%
viability, T/C (second compound 0.1 µM, first compound 0.949 µM): 93.5%
viability, T/C (second compound 0.1 µM, first compound 3 µM): 121%
viability, T/C (second compound 0.316 µM, first compound 0.00949 µM): 95.3%
viability, T/C (second compound 0.316 µM, first compound 0.03 µM): 117%
viability, T/C (second compound 0.316 µM, first compound 0.0949 µM): 95.5%
viability, T/C (second compound 0.316 µM, first compound 0.3 µM): 109%
viability, T/C (second compound 0.316 µM, first compound 0.949 µM): 92.9%
viability, T/C (second compound 0.316 µM, first compound 3 µM): 107%
viability, T/C (second compound 1 µM, first compound 0.00949 µM): 96.6%
viability, T/C (second compound 1 µM, first compound 0.03 µM): 97.1%
viability, T/C (second compound 1 µM, first compound 0.0949 µM): 94.8%
viability, T/C (second compound 1 µM, first compound 0.3 µM): 99.2%
viability, T/C (second compound 1 µM, first compound 0.949 µM): 97.8%
viability, T/C (second compound 1 µM, first compound 3 µM): 115%

O=C(c1cc(Cc2n[nH]c(=O)c3ccccc23)ccc1F)N1CCN(C(=O)C2CC2)CC1 + CCN1C(C(=O)NC23CCC(C(=O)O)(CC2)CC3)C(c2cccc(Cl)c2F)C2(C(=O)Nc3cc(Cl)ccc32)C12CCCCC2
IC50 (curve of first compound, second compound 0.03 µM): 1330 nM
IC50 (curve of first compound, second compound 0.0949 µM): 2020 nM
IC50 (curve of first compound, second compound 0.3 µM): 1360 nM
IC50 (curve of first compound, second compound 0.949 µM): 2620 nM
IC50 (curve of first compound, second compound 3 µM): 2550 nM
viability, T/C (second compound 0.03 µM, first compound 0.0316 µM): 77.3%
viability, T/C (second compound 0.03 µM, first compound 0.1 µM): 101%
viability, T/C (second compound 0.03 µM, first compound 0.316 µM): 100%
viability, T/C (second compound 0.03 µM, first compound 1 µM): 60.9%
viability, T/C (second compound 0.03 µM, first compound 3.16 µM): 18.1%
viability, T/C (second compound 0.03 µM, first compound 10 µM): 8.44%
viability, T/C (second compound 0.0949 µM, first compound 0.0316 µM): 81.3%
viability, T/C (second compound 0.0949 µM, first compound 0.1 µM): 106%
viability, T/C (second compound 0.0949 µM, first compound 0.316 µM): 105%
viability, T/C (second compound 0.0949 µM, first compound 1 µM): 77.5%
viability, T/C (second compound 0.0949 µM, first compound 3.16 µM): 32.7%
viability, T/C (second compound 0.0949 µM, first compound 10 µM): 19.7%
viability, T/C (second compound 0.3 µM, first compound 0.0316 µM): 79.8%
viability, T/C (second compound 0.3 µM, first compound 0.1 µM): 102%
viability, T/C (second compound 0.3 µM, first compound 0.316 µM): 95.7%
viability, T/C (second compound 0.3 µM, first compound 1 µM): 57%
viability, T/C (second compound 0.3 µM, first compound 3.16 µM): 25.5%
viability, T/C (second compound 0.3 µM, first compound 10 µM): 8.82%
viability, T/C (second compound 0.949 µM, first compound 0.0316 µM): 109%
viability, T/C (second compound 0.949 µM, first compound 0.1 µM): 99.8%
viability, T/C (second compound 0.949 µM, first compound 0.316 µM): 97.5%
viability, T/C (second compound 0.949 µM, first compound 1 µM): 86.7%
viability, T/C (second compound 0.949 µM, first compound 3.16 µM): 42.5%
viability, T/C (second compound 0.949 µM, first compound 10 µM): 5.78%
viability, T/C (second compound 3 µM, first compound 0.0316 µM): 94.5%
viability, T/C (second compound 3 µM, first compound 0.1 µM): 78.1%
viability, T/C (second compound 3 µM, first compound 0.316 µM): 95.1%
viability, T/C (second compound 3 µM, first compound 1 µM): 93.3%
viability, T/C (second compound 3 µM, first compound 3.16 µM): 40.8%
viability, T/C (second compound 3 µM, first compound 10 µM): 22.3%

NC1CCC(NC2CC2c2ccccc2)CC1 (configuration not stated)
viability, T/C (compound 0.000316 µM): 67.7% and 77.1% and 95.6%
viability, T/C (compound 0.001 µM): 69.7% and 75.9% and 98.6%
viability, T/C (compound 0.00316 µM): 79.1% and 83% and 96.4%
viability, T/C (compound 0.01 µM): 69.3% and 84.8% and 101%
viability, T/C (compound 0.0316 µM): 89.1% and 83.1% and 91.1%
viability, T/C (compound 0.1 µM): 65% and 77.7% and 93%
IC50 (curve of compound): > 100 nM
